Laboratory results from paper PMC7224213, “A novel peroxidase from Ziziphus jujuba fruit: purification, thermodynamics and biochemical characterization properties” (Scientific Reports, 2020).

System: T1, Z. jujuba peroxidase (POD IIA)
T1 construct: 56 kDa by gel filtration and SDS-PAGE (single band); EC 1.11.1.7
Assay: absorbance at […] nm, Lineweaver-Burk
Type: biochemical, Ziziphus jujuba
Settings: co-substrate H2O2; 0.05 M sodium acetate pH 5.5; 50 °C; guaiacol 20-90 mM; text prints 23.5 with the units of Km and Vmax interchanged (unit/ml)

Km: 23.5 mM
Compound: COc1ccccc1O [guaiacol]
